Reference: patent US20240400500A1, “SMALL-MOLECULE COMPOUND HAVING NAPHTHALENETHIOL ETHER STRUCTURE, AND USE THEREOF” (HANGZHOU PHECDAMED CO., LTD., priority 2021, published 2024)

Tests used:
HEK293T-mtkeima cells [1] = experiment: Functional test of mitophagy inducer, direct treatment without CCCP; format: cell-based, human; settings: for Ability to induce mitophagy: HEK293T-mtkeima cells, number of cells in which mitophagy occurs/number of total cells
Method: Seeding human embryonic kidney transformed cells HEK293T-mtkeima cells in a 96-well black ELISA Plate at 1.5*10^5 cells/ml, 100 μl per well; after 25 hours, adding UMI-77 and compounds I-1˜I-26 respectively, and setting up 3 replicates; under 37° C., 5% CO2 incubation conditions, taking picture with biotekcytation5 every few hours for a total of 20 hours. Taking the bright field as the focusing channel, and taking 9pictures per well, and processing the pictures by using the instrument software and converting into the degree of mitophagy strength, exemplifying by UMI-77 and Compound I-4, the results are shown in FIG. 1.
Note: The HEK293T-mtkeima cells used in the experiments are HEK293T-mtkeima cells obtained according to the method mentioned in the literature [Cen, X. et al. Nat Commun 11, 5731 (2020).], by using lentiviral packaging technology, and stably expressing mtkeima protein in HEK293T cells. The CCCP used in the experiments is purchased from TargetMol (Item No. T7081).

[2] = In vitro liver microsome stability test (mice); format: in vitro ADME; settings: mice liver microsomes, NADPH, 37° C., 0-45 min
Method: (§1) Selecting Ketanserin as the reference compound. The specific method is as follows:
(§2) Preparing 0.1M K3PO4 (pH 7.4) buffer and 3×NADPH stock solution (6 mM, 5 mg/mL), and preheating in a 37° C. water bath; preparing of test compound and control compound spiking solution: adding 5 μL compound stock solution ([…]) into 95 μL acetonitrile; preparing of 1.5 μM spiking solution in microsomes (0.75 mg/mL): adding 1.5 μL spiking solution and 18.75 μL liver microsomes solution (20 mg/mL) into 479.75 μL K3PO4 buffer; taking 30 μL spiking solution in microsomes to the multi-well plate and incubating at 37° C. for 5 minutes; adding 15 μL NADPH stock solution into each well to start the reaction, and timing; respectively at 0 min, 5 min, 15 min, 30 min and 45 min, adding 150 μL of IS-containing acetonitrile solution to terminate the reaction; shaking for 10 mins and then centrifuging at 6000 rpm for 15 mins; taking 80 μL of the supernatant from each well for LC/MS detection and calculating T1/2.
(§3) Note: The mice and human liver microsomes used in the experiments are purchased from Xenotech.

[3] = In vitro liver microsome stability test (human); format: in vitro ADME; settings: human liver microsomes, NADPH, 37° C., 0-45 min
Method: as §1, §2, §3

HEK293T-mtkeima cells [4] = experiment: Selective induction of mitophagy after CCCP-induced mitochondrial damage; format: cell-based, human; settings: 5 uM or 10 uM CCCP pre-treatment compared with no CCCP treatment

Structure (SMILES): CN=S(=O)(Nc1cc(SCC(=O)O)c(O)c2ccccc12)c1ccc(Br)cc1 (centres unmarked) [Compound I-4]
- Ability to induce mitophagy (HEK293T-mtkeima cells [1]): +++ (strong ability to induce mitophagy (number of cells in which mitophagy occurs/number of total cells >0.30))
- Strength of mitophagy induction compared with UMI-77 (FIG. 1) (HEK293T-mtkeima cells [1]; cells not treated with CCCP): induces mitophagy more strongly than UMI-77
- Liver microsome stability [2]: relatively superior stability
- Liver microsome stability [3]: relatively superior stability

Structure (SMILES): CN=S(=O)(Nc1cc(SCc2nn[nH]n2)c(O)c2ccccc12)c1ccc(Br)cc1 (centres unmarked) [Compound I-12]
- Ability to induce mitophagy (HEK293T-mtkeima cells [1]): +++ (strong ability to induce mitophagy (number of cells in which mitophagy occurs/number of total cells >0.30))

Structure (SMILES): O=C(O)CSc1cc(N(c2ccccc2)S(=O)(=O)c2ccc(Br)cc2)c2ccccc2c1O [Compound I-3]
- Ability to induce mitophagy (HEK293T-mtkeima cells [1]): ++ (moderate ability to induce mitophagy (number of cells in which mitophagy occurs/number of total cells is in the range of 0.2~0.3))

Structure (SMILES): CN=S(=O)(Nc1cc(SCC(=O)O)c(OC(C)=O)c2ccccc12)c1ccc(Br)cc1 (centres unmarked) [Compound I-14]
- Ability to induce mitophagy (HEK293T-mtkeima cells [1]): ++ (moderate ability to induce mitophagy (number of cells in which mitophagy occurs/number of total cells is in the range of 0.2~0.3))

Structure (SMILES): CN=S(=O)(c1ccc(Br)cc1)N(C)c1cc(SCC(=O)O)c(O)c2ccccc12 (centres unmarked) [Compound I-9]
- Ability to induce mitophagy (HEK293T-mtkeima cells [1]): ++ (moderate ability to induce mitophagy (number of cells in which mitophagy occurs/number of total cells is in the range of 0.2~0.3))

Structure (SMILES): O=C(O)CSc1cc(N(CCO)S(=O)(=O)c2ccc(Br)cc2)c2ccccc2c1O [Compound I-2]
- Ability to induce mitophagy (HEK293T-mtkeima cells [1]): ++ (moderate ability to induce mitophagy (number of cells in which mitophagy occurs/number of total cells is in the range of 0.2~0.3))

Structure (SMILES): CN=S(=O)(Nc1cc(SCC(=O)O)c(O)c2ccccc12)c1cccc(-c2ccccc2)c1 (centres unmarked) [Compound I-22]
- Ability to induce mitophagy (HEK293T-mtkeima cells [1]): ++ (moderate ability to induce mitophagy (number of cells in which mitophagy occurs/number of total cells is in the range of 0.2~0.3))

Structure (SMILES): CN=S(=O)(Nc1cc(SCC(=O)O)c(O)c2ccccc12)c1ccc(C(F)(F)F)cc1 (centres unmarked) [Compound I-19]
- Ability to induce mitophagy (HEK293T-mtkeima cells [1]): +++ (strong ability to induce mitophagy (number of cells in which mitophagy occurs/number of total cells >0.30))

Structure (SMILES): CN=S(=O)(Nc1cc(SCC(=O)O)c(O)c2ccccc12)c1ccc(-c2ccccc2)cc1 (centres unmarked) [Compound I-18]
- Ability to induce mitophagy (HEK293T-mtkeima cells [1]): ++ (moderate ability to induce mitophagy (number of cells in which mitophagy occurs/number of total cells is in the range of 0.2~0.3))

Structure (SMILES): CN=S(=O)(Nc1cc(SCC(=O)O)c(O)c2ccccc12)c1ccc2ccccc2c1 (centres unmarked) [Compound I-20]
- Ability to induce mitophagy (HEK293T-mtkeima cells [1]): ++ (moderate ability to induce mitophagy (number of cells in which mitophagy occurs/number of total cells is in the range of 0.2~0.3))

Structure (SMILES): O=C(O)CSc1cc(NS(=O)(=NC2CC2)c2ccc(Br)cc2)c2ccccc2c1O (centres unmarked) [Compound I-5]
- Ability to induce mitophagy (HEK293T-mtkeima cells [1]): +++ (strong ability to induce mitophagy (number of cells in which mitophagy occurs/number of total cells >0.30))

Structure (SMILES): CN(c1cc(SCC(=O)O)c(O)c2ccccc12)S(=O)(=O)c1ccc(Br)cc1 [Compound I-1]
- Selective induction of autophagy in damaged mitochondria (FIG. 2) (HEK293T-mtkeima cells [4]): more likely to induce autophagy in damaged mitochondria
- Ability to induce mitophagy (HEK293T-mtkeima cells [1]): +++ (strong ability to induce mitophagy (number of cells in which mitophagy occurs/number of total cells >0.30))
- Liver microsome stability [2]: relatively superior stability
- Liver microsome stability [3]: relatively superior stability

Structure (SMILES): CN=S(=O)(Nc1cc(SCc2nnc[nH]2)c(O)c2ccccc12)c1ccc(Br)cc1 (centres unmarked) [Compound I-13]
- Ability to induce mitophagy (HEK293T-mtkeima cells [1]): ++ (moderate ability to induce mitophagy (number of cells in which mitophagy occurs/number of total cells is in the range of 0.2~0.3))

Structure (SMILES): O=C(O)CSc1cc(NS(=O)(=Nc2ccccc2)c2ccc(Br)cc2)c2ccccc2c1O (centres unmarked) [Compound I-8]
- Ability to induce mitophagy (HEK293T-mtkeima cells [1]): ++ (moderate ability to induce mitophagy (number of cells in which mitophagy occurs/number of total cells is in the range of 0.2~0.3))

Structure (SMILES): CN=S(=O)(Nc1cc(SCC(=O)O)c(O)c2ccccc12)c1cccs1 (centres unmarked) [Compound I-21]
- Ability to induce mitophagy (HEK293T-mtkeima cells [1]): +++ (strong ability to induce mitophagy (number of cells in which mitophagy occurs/number of total cells >0.30))

Structure (SMILES): O=C(O)CSc1cc(N2CCN=S2(=O)c2ccc(Br)cc2)c2ccccc2c1O (centres unmarked) [Compound I-10]
- Ability to induce mitophagy (HEK293T-mtkeima cells [1]): ++ (moderate ability to induce mitophagy (number of cells in which mitophagy occurs/number of total cells is in the range of 0.2~0.3))

Structure (SMILES): O=C(O)CSc1cc(NS(=O)(=NC2COC2)c2ccc(Br)cc2)c2ccccc2c1O (centres unmarked) [Compound I-6]
- Ability to induce mitophagy (HEK293T-mtkeima cells [1]): +++ (strong ability to induce mitophagy (number of cells in which mitophagy occurs/number of total cells >0.30))

Structure (SMILES): O=C(O)CSc1cc(NS(=O)(=O)c2ccc(Br)cc2)c2ccccc2c1O [UMI-77, reference compound]
- Selective induction of autophagy in damaged mitochondria (FIG. 2) (HEK293T-mtkeima cells [4]): unable to selectively induce autophagy in damaged mitochondria
- Ability to induce mitophagy (HEK293T-mtkeima cells [1]): + (weak ability to induce mitophagy (number of cells in which mitophagy occurs/number of total cells is in the range of 0.1~0.2))
- Liver microsome stability [2]: unstable
- Liver microsome stability [3]: unstable

Structure (SMILES): O=C(O)CSc1cc(N2CCCN=S2(=O)c2ccc(Br)cc2)c2ccccc2c1O (centres unmarked) [Compound I-11]
- Ability to induce mitophagy (HEK293T-mtkeima cells [1]): ++ (moderate ability to induce mitophagy (number of cells in which mitophagy occurs/number of total cells is in the range of 0.2~0.3))

Structure (SMILES): CN=S(=O)(Nc1cc(SCC(=O)O)c(O)c2ccccc12)c1ccc(Oc2ccccc2)cc1 (centres unmarked) [Compound I-17]
- Ability to induce mitophagy (HEK293T-mtkeima cells [1]): +++ (strong ability to induce mitophagy (number of cells in which mitophagy occurs/number of total cells >0.30))
